Data published in US20230026277A1, “COMPOSITION FOR PREVENTION, ALLEVIATION, OR TREATMENT OF RESPIRATORY DISEASE” (MICROX CO., LTD., priority 2019, published 2023).

What was measured:
Type in all cases: in vivo
IL-4, IL-5, and IL-13 = test: Cytokines in bronchoalveolar lavage fluid by ELISA, asthma-induced mice; details: asthma-induced mice; for expression levels of the cytokines (IL-4, IL-5, and IL-13): Experiment Result 7, orally administered daily, FIG. 20
Description: (§1) Eight-week-old female […] mice (Orient Bio Korea Inc., Korea) having no certain pathogen were accommodated in an aseptic laminar-flow cabinet, and bred by supplying a standard solid feed ad libitum. When the following experiment was performed, the mice were made to correspond to 7- to 8-weeks old, and all laboratory animals were managed according to the protocol approved by the Institutional Animal Care and Use Committee of the Chonbuk National University Medical School.
(§2) Also, on days 21 and 28 from the experimental starting date, the mice were put into a plastic box (Plexiglas (Rohm & Haas, Philadelphia, Pa.) exposure chamber; 24.5 cm×40.5 cm×15.0 cm), and 1.5% ovalbumin was evaporated using an ultrasonic nebulizer (NE-U12; output 0.8 mL/min; Omron, Japan), and injected into the box for 30 minutes so that the mice inhaled the evaporated ovalbumin (secondary challenge).
(§3) After the mice were anesthetized, a thin tube was inserted into the airway, and a piston process was repeated using a syringe filled with 0.2 mL of physiological saline to obtain a bronchoalveolar lavage fluid. The bronchoalveolar lavage fluid obtained through this piston process was stored at −70° C. when it was not immediately used in the experiments.
(§4) A level of cytokines in the bronchoalveolar lavage fluid obtained in Experimental Method 2 was measured using an ELISA kit. Here, ELISA kits specifically manufactured for TNF-α, IL-4, IL-5, and IL-13 were used.
Preparation Example 3 (α,δ-NA-L-G) or α,δ N-acetyl-D-glutamine was orally administered to the asthma-induced mice of Experimental Method 1 at a concentration of 100, 200, 400 or 800 μg/kg/day 30 minutes before a secondary airway challenge, and levels of IL-4, IL-5, and IL-13 were measured through the method described above in Experimental Method 4 24 hours after the secondary challenge. The results are shown in A and B of FIG. 4.

asthma-induced mice = test: Bronchial hypersensitivity reaction (Rrs value, methacholine), asthma-induced mice; details: for bronchial hypersensitivity reaction: Experiment Result 7, orally administered daily, FIG. 21
Description: as §1, §2
45 mg/kg of sodium pentobarbital was intraperitoneally injected into the mice prepared in Experimental Method 1 to anesthetize the mice, and the airways were cut and an 18 gauge needle was inserted into the airways. Thereafter, the needle was connected to a small-sized animal respirator connected to a computer, and the computer system was adjusted to a respiration rate of 150 breaths per minute. Then, methacholine in the form of aerosol was fed at an increasing concentration of 5.0 to 50 mg/mL so that the mice inhaled the methacholine. Then, an airway response was measured, and indicated as an Rrs value.
Preparation Example 3 (α,δ-NA-L-G) or α,δ N-acetyl-D-glutamine was orally administered to the asthma-induced mice of Experimental Method 1 at a concentration of 200 or 400 μg/kg/day 30 minutes before a secondary airway challenge, and the bronchial hypersensitivity reaction was measured 48 hours after the secondary challenge using the method described in Experimental Method 5. The results are shown in A and B of FIG. 5.

[1] = tested on: neutrophils and eosinophils introduced into the airway; test: Inflammatory cells (neutrophils and eosinophils) in bronchoalveolar lavage fluid, Diff-Quik staining, asthma-induced mice; details: asthma-induced mice; for cell numbers of neutrophils and eosinophils: Experiment Result 7, orally administered daily, FIG. 19
Description: as §1, §2, §3
50 μL of the bronchoalveolar lavage fluid obtained in Experimental Method 2 was put on a slide used for the cytospin, and centrifuged for 30 minutes. Thereafter, Diff-Quik staining was performed, and inflammatory cells (neutrophils and eosinophils) were observed using a microscope.
Preparation Example 3 (α,δ-NA-L-G) or α,δ N-acetyl-D-glutamine (α,δ-NA-D-G) was orally administered to the asthma-induced mice of Experimental Method 1 daily from the experimental starting date at a concentration of 50, 100, or 200 μg/kg/day, and the cell numbers of neutrophils and eosinophils introduced into the airway through the method of Experimental Method 3 were measured. The results are shown in A and B of FIG. 3. In this case, the cell numbers were measured at 10 hours (neutrophils) or 48 hours (eosinophils) after a secondary challenge.

CK2α protein = test: Western blot of CK2α protein in lung of asthma-induced mice; details: administered daily; 1 or 2 hours after the secondary challenge; FIG. 10
Description: as §2
A tissue was extracted from each of the mice manufactured in Experimental Method 1, and finely ground to a cell level. Thereafter, the cells were lysed in a cell lysis buffer containing a protease inhibitor to obtain a cell lysate. The cell lysate was centrifuged to obtain protein. Then, an equivalent amount of the proteins obtained from the cells were loaded on an SDS-PAGE gel and electrophoresed. The proteins present in the electrophoresed gel were transferred to a PVDF membrane. The PVDF membrane was washed, and added to a blocking buffer in which 5% skim milk was included in a TBS-T buffer, and incubated at room temperature. Then, the PVDF membrane was incubated at room temperature with an antibody diluted 1:1,000 in a TBS-T buffer containing 3% BSA. […] The PVDF membrane was washed three times with a TBS-T buffer, and visualized and quantified using an ECL Western blotting detection reagent. […]
(§5) Specifically, the secondary challenge (ovalbumin injection) was performed according to the method described above in Experimental Method 1, and the lungs were extracted after an hour, and then measured according to the method described above in Experimental Method 7. […] Also, the level of TNF-α corresponding to an NK-κB-dependent cytokine was measured by ELISA according to the method described above in Experimental Method 4. […]
The secondary challenge (ovalbumin injection) was performed according to the method described above in Experimental Method 1, and the lungs were extracted after 1 or 2 hours, and then measured according to the method described above in Experimental Method 7. […]

NF-κB and TNF-α = test: NF-κB (Western blot) and TNF-α (ELISA) in asthma-induced mice; details: administered daily
Description: as §2, §4
A tissue was extracted from each of the mice manufactured in Experimental Method 1, and finely ground to a cell level. Thereafter, the cells were lysed in a cell lysis buffer containing a protease inhibitor to obtain a cell lysate. The cell lysate was centrifuged to obtain protein. Then, an equivalent amount of the proteins obtained from the cells were loaded on an SDS-PAGE gel and electrophoresed. The proteins present in the electrophoresed gel were transferred to a PVDF membrane. The PVDF membrane was washed, and added to a blocking buffer in which 5% skim milk was included in a TBS-T buffer, and incubated at room temperature. Then, the PVDF membrane was incubated at room temperature with an antibody diluted 1:1,000 in a TBS-T buffer containing 3% BSA. Then, the PVDF membrane was washed with a TBS-T buffer, and incubated at room temperature for an hour with a dilute solution containing HRP-bound IgG. The PVDF membrane was washed three times with a TBS-T buffer, and visualized and quantified using an ECL Western blotting detection reagent.
Here, antibodies specific to elastin, caspase-3, collagen, MKP-1, p-cPLA, p-p38, NF-κB(p65), CK2α, GAPDH, or β-actin were used in the Western blot.
Specifically, the secondary challenge (ovalbumin injection) was performed according to the method described above in Experimental Method 1, and the lungs were extracted after an hour, and then measured according to the method described above in Experimental Method 7. The results are shown in A of FIG. 9. Also, the level of TNF-α corresponding to an NK-κB-dependent cytokine was measured by ELISA according to the method described above in Experimental Method 4. The results are shown in B of FIG. 9. […]
as §5, with “The” for “Specifically, the”, “30 or 60 minutes,” for “an hour,”

SMILES	expression levels of the cytokines (IL-4, IL-5, and IL-13) (IL-4, IL-5, and IL-13)	bronchial hypersensitivity reaction (asthma-induced mice)	cell numbers of neutrophils and eosinophils [1]	also measured
CC(=O)NC(=O)CC[C@H](NC(C)=O)C(=O)OCc1ccccc1 [Preparation Example 2, Benzyl 2,5-diacetamido-5-oxopentanoate]	decreased	inhibited	decreased	
CCOC(=O)[C@H](CCC(=O)NC(C)=O)NC(C)=O [Preparation Example 4, Ethyl 2,5-diacetamido-5-oxopentanoate]	decreased	inhibited	decreased	
COC(=O)[C@H](CCC(=O)NC(C)=O)NC(C)=O [Preparation Example 6]	decreased	inhibited	decreased	
Oc1ccc(-c2nc(-c3ccncc3)c(-c3ccc(F)cc3)[nH]2)cc1 [SB202190, reference compound]				level of the CK2α protein (CK2α protein): decreased
Brc1c(Br)c(Br)c2n[nH]nc2c1Br [inhibitor of the CK2α protein, TBBt, reference compound]				level of the presence of the TNF-α protein (NF-κB and TNF-α; ELISA, FIG. 11B): decreased; level of the NF-κB protein (NF-κB and TNF-α; at 30 and 60 minutes after secondary challenge, FIG. 11): decreased
CC(=O)NC(=O)CC[C@@H](NC(C)=O)C(=O)O [α,δ N-acetyl-D-glutamine, reference compound]				levels of the cytokines (IL-4, IL-5, IL-13) (IL-4, IL-5, and IL-13; oral 100, 200, 400 or 800 μg/kg/day, regardless of the concentration, 24 hours after secondary challenge, FIG. 4B): did not inhibit; Rrs value (bronchial hypersensitivity reaction) (asthma-induced mice; oral 200 or 400 μg/kg/day 30 minutes before secondary challenge, 48 hours after, methacholine 5.0 to 50 mg/mL, FIG. 5): did not exhibit an inhibitory effect; inflow of the neutrophils and eosinophils into the airway ([1]; oral daily 50, 100 or 200 μg/kg/day, neutrophils 10 hours, eosinophils 48 hours after secondary challenge, FIG. 3): not inhibited
